This is an account of results in patent US20240376094A2, “SELECTIVE BCL-XL PROTAC COMPOUNDS AND METHODS OF USE” (Les Laboratoires Servier, priority 2021, published 2024).

Broadly, the remaining activity is the signal under treatment as a percentage of the control signal. The term IC50 denotes the concentration that gives 50% inhibition. A high value points to lower potency. The term DC50 denotes the midpoint of the concentration-degradation curve.

Type in all cases: cell-based
For one assay, the target named is T1, Bcl-xL (Homo sapiens, UniProt Q07817).
T1 construct: Measured levels of Bcl-xL protein of HCT116 cells treated with the tested compounds; host or cells: HCT116
The experiment in a line: HCT116 Bcl-xL degradation, capillary-based immunoassay (WES). The following applies: for remaining activity at 0.01 µM / remaining activity at 0.1 µM: HCT-116, 24 h, % of untreated cells; for remaining activity at 0.01 µM: HCT116, 10 nM; for remaining activity at 0.1 µM: HCT116, 100 nM. The method in brief: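 Bcl-xL protein level by capillary WES immunoassay in HCT116 lysates, as % of untreated after cofilin normalization. Compound exposure was 24 h at 10 and 100 nM and/or a 9-point series, in quadruplicate. Four-parameter fitting gave the DC50.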

Assay [1] deals with MOLT-4 cells. The experiment in a line: MOLT-4 cell viability, MTT assay. The following applies: Homo sapiens, MOLT-4, 48 h. The method in brief:
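MOLT-4 cells in RPMI 1640 with 10% FBS were exposed to compounds for 48 h at 9 concentrations (3.16-fold dilutions, triplicates). After 4 h with MTT and overnight SDS/HCl solubilisation, absorbance was read at 540 nm. IC50 came from four-parameter fits versus control, as the mean of ≥2 independent experiments.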
For orientation: Formazan colour is commonly taken as a measure of viable cells.

Assay [2] concerns MOLT-4 cells. The experiment in a line: MOLT-4 cell viability, CTG assay. The note with it: Homo sapiens, MOLT-4, 48 h. The method in brief:
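Viability read as total ATP luminescence (CTG) after 48 h compound treatment, 11 points at 5-fold spacing in triplicate, cells in RPMI 1640/10% FBS. IC50 is the concentration halving signal relative to control, four-parameter fit, averaged over at least 2 experiments.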

T1 sequence (Q07817 whole entry): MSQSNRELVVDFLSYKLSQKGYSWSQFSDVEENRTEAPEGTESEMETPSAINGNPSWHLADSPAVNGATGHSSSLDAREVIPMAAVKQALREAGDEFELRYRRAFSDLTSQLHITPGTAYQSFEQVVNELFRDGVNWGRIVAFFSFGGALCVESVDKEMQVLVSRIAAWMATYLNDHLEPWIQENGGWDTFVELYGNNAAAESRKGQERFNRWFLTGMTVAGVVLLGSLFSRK

`Cc1c(Nc2nc3ccccc3s2)nnc2c1CCCN2c1ccc(-c2cnn(CC34CC5(C)CC(C)(C3)CC(OCCN(C)CCOCCOCCOCCNc3cccc6c3C(=O)N(C3CCC(=O)NC3=O)C6=O)(C5)C4)c2C)c(C(=O)O)n1` (stereo not drawn) [Example 11, 6-[3-(1,3-benzothiazol-2-ylamino)-4-methyl-6,7-dihydro-5H-pyrido[2,3-c]pyridazin-8-yl]-3-[1-[[3-[2-[2-[2-[2-[2-[[2-(2,6-dioxo-3-piperidyl)-1,3-dioxo-isoindolin-4-yl]amino]ethoxy]ethoxy]ethoxy]ethyl-methyl-amino]ethoxy]-5,7-dimethyl-1-adamantyl]methyl]-5-methyl-pyrazol-4-yl]pyridine-2-carboxylic acid]: at Bcl-xL, the remaining activity at 0.01 µM stood at 83% and the remaining activity at 0.1 µM amounted to 60%. Further, in the assay on MOLT-4 cells [1], the IC50 was found to be 4.29 nM. In the assay with MOLT-4 cells [2], this compound came in with an IC50 of 20.3 nM.

Turning to `CNCC#Cc1ccc(OCCCc2sc(N(CCCc3cn(CCOCCOCCOCCOCCOCCC(=O)N[C@H](C(=O)N4C[C@H](O)C[C@H]4C(=O)NCc4ccc(-c5scnc5C)cc4)C(C)(C)C)nn3)c3cc(C)c(Nc4nc5ccccc5s4)nn3)nc2C(=O)O)c(F)c1` [Example 29, 2-[[6-(1,3-benzothiazol-2-ylamino)-5-methyl-pyridazin-3-yl]-[3-[1-[2-[2-[2-[2-[2-[3-[[(1S)-1-[(2S,4R)-4-hydroxy-2-[[4-(4-methylthiazol-5-yl)phenyl]methylcarbamoyl]pyrrolidine-1-carbonyl]-2,2-dimethyl-propyl]amino]-3-oxo-propoxy]ethoxy]ethoxy]ethoxy]ethoxy]ethyl]triazol-4-yl]propyl]amino]-5-[3-[2-fluoro-4-[3-(methylamino)prop-1-ynyl]phenoxy]propyl]thiazole-4-carboxylic acid], on Bcl-xL, the remaining activity at 0.01 µM turned out to be 64% and the remaining activity at 0.1 µM is 67%. This compound also came in with an IC50 with MOLT-4 cells [1] of 875 nM. The compound further showed an IC50 in the assay on MOLT-4 cells [2] of 1630 nM.

In the case of `Cc1cc(N(CCCCCn2cc(CCCCCCCNC(=O)COc3cccc4c3C(=O)N(C3CCC(=O)NC3=O)C4=O)nn2)c2ccc(-c3cnn(CC45CC6(C)CC(C)(C4)CC(OCCN(C)C)(C6)C5)c3C)c(C(=O)O)n2)nnc1Nc1nc2ccccc2s1` (stereo not drawn) [Example 64, 6-[[6-(1,3-benzothiazol-2-ylamino)-5-methyl-pyridazin-3-yl]-[5-[4-[7-[[2-[2-(2,6-dioxo-3-piperidyl)-1,3-dioxo-isoindolin-4-yl]oxyacetyl]amino]heptyl]triazol-1-yl]pentyl]amino]-3-[1-[[3-[2-(dimethylamino)ethoxy]-5,7-dimethyl-1-adamantyl]methyl]-5-methyl-pyrazol-4-yl]pyridine-2-carboxylic acid], on Bcl-xL (HCT116, 24 h, 9-point serial dilution), it took 46.2 nM to reach half-maximal degradation (DC50). In addition, on Bcl-xL, the remaining activity at 0.01 µM amounted to 59% and the remaining activity at 0.1 µM came to 40%. In the assay on MOLT-4 cells [1], this compound came in with an IC50 of 92.8 nM. The same compound yielded an IC50 in the assay on MOLT-4 cells [2] of 118 nM.

Regarding `Cc1c(Nc2nc3ccccc3s2)nnc2c1CCCN2c1ccc(-c2cnn(CC34CC5(C)CC(C)(C3)CC(OCCN(C)CCOCCOCCOCCOCCOCCNc3cccc6c3C(=O)N(C3CCC(=O)NC3=O)C6=O)(C5)C4)c2C)c(C(=O)O)n1` (stereo not drawn) [Example 13, 6-[3-(1,3-benzothiazol-2-ylamino)-4-methyl-6,7-dihydro-5H-pyrido[2,3-c]pyridazin-8-yl]-3-[1-[[3-[2-[2-[2-[2-[2-[2-[2-[[2-(2,6-dioxo-3-piperidyl)-1,3-dioxo-isoindolin-4-yl]amino]ethoxy]ethoxy]ethoxy]ethoxy]ethoxy]ethyl-methyl-amino]ethoxy]-5,7-dimethyl-1-adamantyl]methyl]-5-methyl-pyrazol-4-yl]pyridine-2-carboxylic acid], the remaining activity at 0.01 µM on Bcl-xL is 79%. Moreover, on Bcl-xL, the remaining activity at 0.1 µM was 57%. Besides, the IC50 with MOLT-4 cells [1] came out at 13.5 nM; in the assay on MOLT-4 cells [2], 33.9 nM.

Regarding `Cc1c(Nc2nc3ccccc3s2)nnc2c1CCCN2c1ccc(-c2cnn(CC34CC5(C)CC(C)(C3)CC(OCCN(C)CCOCCOCCNc3cccc6c3C(=O)N(C3CCC(=O)NC3=O)C6=O)(C5)C4)c2C)c(C(=O)O)n1` (stereo not drawn) [Example 12, 6-[3-(1,3-benzothiazol-2-ylamino)-4-methyl-6,7-dihydro-5H-pyrido[2,3-c]pyridazin-8-yl]-3-[1-[[3-[2-[2-[2-[2-[[2-(2,6-dioxo-3-piperidyl)-1,3-dioxo-isoindolin-4-yl]amino]ethoxy]ethoxy]ethyl-methyl-amino]ethoxy]-5,7-dimethyl-1-adamantyl]methyl]-5-methyl-pyrazol-4-yl]pyridine-2-carboxylic acid], on Bcl-xL, the remaining activity at 0.01 µM worked out at 69% and the remaining activity at 0.1 µM was 69%. Besides, half-maximal inhibition in the assay with MOLT-4 cells [1] (IC50) was put at 9.49 nM. The same compound yielded an IC50 in the assay on MOLT-4 cells [2] of 19.9 nM.

Consider `Cc1cc(N(CCCCCn2cc(COCCOCCNC(=O)COc3cccc4c3C(=O)N(C3CCC(=O)NC3=O)C4=O)nn2)c2ccc(-c3cnn(CC45CC6(C)CC(C)(C4)CC(OCCN(C)C)(C6)C5)c3C)c(C(=O)O)n2)nnc1Nc1nc2ccccc2s1` (stereo not drawn) [Example 65, 6-[[6-(1,3-benzothiazol-2-ylamino)-5-methyl-pyridazin-3-yl]-[5-[4-[2-[2-[[2-[2-(2,6-dioxo-3-piperidyl)-1,3-dioxo-isoindolin-4-yl]oxyacetyl]amino]ethoxy]ethoxymethyl]triazol-1-yl]pentyl]amino]-3-[1-[[3-[2-(dimethylamino)ethoxy]-5,7-dimethyl-1-adamantyl]methyl]-5-methyl-pyrazol-4-yl]pyridine-2-carboxylic acid], for which, on Bcl-xL, the remaining activity at 0.01 µM was determined as 90% and the remaining activity at 0.1 µM came to 78%. In the assay with MOLT-4 cells [1], this compound showed an IC50 of 156 nM. The same compound displayed an IC50 in the assay on MOLT-4 cells [2] of 140 nM.

`Cc1c(Nc2nc3ccccc3s2)nnc2c1CCCN2c1ccc(-c2cnn(CC34CC5(C)CC(C)(C3)CC(OCCN(C)CCCCCCOc3ccc6c(c3)C(=O)N(C3CCC(=O)NC3=O)C6=O)(C5)C4)c2C)c(C(=O)O)n1` (stereo not drawn) [Example 14, 6-[3-(1,3-benzothiazol-2-ylamino)-4-methyl-6,7-dihydro-5H-pyrido[2,3-c]pyridazin-8-yl]-3-[1-[[3-[2-[6-[2-(2,6-dioxo-3-piperidyl)-1,3-dioxo-isoindolin-5-yl]oxyhexyl-methyl-amino]ethoxy]-5,7-dimethyl-1-adamantyl]methyl]-5-methyl-pyrazol-4-yl]pyridine-2-carboxylic acid]: on Bcl-xL, the remaining activity at 0.01 µM is 81% and the remaining activity at 0.1 µM was determined as 86%. This compound had an IC50 in the assay with MOLT-4 cells [1] of 1.15 nM. In the assay on MOLT-4 cells [2], this compound yielded an IC50 of 3.51 nM.

For `CNCC#Cc1ccc(OCCCc2sc(N(CCCc3cn(CCCCCCCCNC(=O)COc4cccc5c4C(=O)N(C4CCC(=O)NC4=O)C5=O)nn3)c3cc(C)c(Nc4nc5ccccc5s4)nn3)nc2C(=O)O)c(F)c1` (stereo not drawn) [Example 30, 2-[[6-(1,3-benzothiazol-2-ylamino)-5-methyl-pyridazin-3-yl]-[3-[1-[8-[[2-[2-(2,6-dioxo-3-piperidyl)-1,3-dioxo-isoindolin-4-yl]oxyacetyl]amino]octyl]triazol-4-yl]propyl]amino]-5-[3-[2-fluoro-4-[3-(methylamino)prop-1-ynyl]phenoxy]propyl]thiazole-4-carboxylic acid], at Bcl-xL, the remaining activity at 0.01 µM stood at 118% and the remaining activity at 0.1 µM worked out at 73%. Besides, in the assay on MOLT-4 cells [1], the IC50 was determined as 133 nM. The compound further returned an IC50 with MOLT-4 cells [2] of 477 nM.
